In patent US20110191867A1:
Read-outs that look alike come from different tables or passages of the source.

What was measured:
natural human antibodies [1] = test system: natural human antibodies
natural human antibodies [2] = format: binding
[3] = test system: commercial polyclonal antibody from rabbit; assay: ELISA control: commercial polyclonal antibody binding to peptide coated on a maleimide plate
Text: A commercial peptide […] (HA11-peptide), which has been used as a recognition tag on recombinant proteins was used as a control and for testing of analysis of binding between a free core peptide and human antibodies. Due to restricted availability of at least N-terminal sequence the peptide would not be very effective in immunization against the viral as therapy. This peptide is known to be antigenic in animals under immunization conditions and antibodies including polyclonals from rabbit, mice etc.

[4] = test system: serum antibodies of test subjects
[5] = test system: serum antibodies of test subjects; remark: listed apart in the source

Row | Substance | immune response of the 6 sera, order of reactivity (natural human antibodies [1]) | immune response of the 6 sera, order of reactivity (natural human antibodies [2]) | reaction with serum of test subject [4] | other results
1 | Biotin-aminohexanoyl-SYACKR [Peptide P2-N] | sera 2 and 5 showed strongest immune response before sera 3, 4 and 6, while serum 1 showed weakest reaction | reacted with sera similarily but reactions with serum 5 was weaker and the serum 6 showed the strongest reponse |  | 
2 | CYPYDVPDYA [HA11-N Cys, commercial peptide used as a recognition tag on recombinant proteins, used as a control] |  |  |  | binding of commercial polyclonal antibody from rabbit to the peptide [3]: effective binding
3 | Biotin-aminocaproyl-CRPRVRNICG-NH4 [Peptide 1C] |  |  | weaker reaction | comparison of the cyclic and linear peptide, reactivity with sera [4]: more reactive with all subjects except S3B; reactivity with sera of test subjects [4]: Strong responses were observed from the serum of test subjects S5B an S7B
4 | Biotin-aminocaproyl-CRPWVRGVC [Peptide 4B] |  |  |  | antibody binding, cyclic peptide compared with corresponding linear peptide ([5]; sera S1B-S8B, FIG. 8): bind generally more strongly antibodies than the corresponding linear peptide 3
5 | Biotin-aminohexanoyl-SKAYSNC [Peptide P1-N] | sera 3 and 4 showed strongest immune response before serum 2, while sera 1, 5 and 6 were weakly or non-reactive | reacted with sera in the order from strongest to weaker: 6, 3, 4, and 2, while 1 and 5 were weakly or non-reactive |  | 
6 | Biotin-aminocaproyl-CRPKVRDQC [Peptide 3B] |  |  | weaker reaction | serum antibody response ([5]; person S5B, vaccinated against influenza, FIG. 5): unusually high response
